Test results as given in ChEMBL document CHEMBL5550215, “Discovery of Novel Imidazo[1,2-a]pyridine-Based HDAC6 Inhibitors as an Anticarcinogen with a Cardioprotective Effect” (J Med Chem, 2024).
The source made the active and inactive calls. The rule behind the calls is not given here.

Legend:
[1] = Observed apparent volume of distribution in male Sprague-Dawley rat at 7 mg/kg,iv measured upto 8 hrs by UPLC-MS/MS analysis; type: ADME, organism-based; conditions: in vivo, read-out: Vz
MGC-803 [2] = test: Induction of apoptosis in human MGC-803 cells assessed as increase in bax expression by Western blot analysis; type: functional, cell-based; conditions: dose <= 2.0 µM
H9c2 [3] = test: Cardioprotective activity in H2O2 induced myocardial injury in rat H9c2 cells assessed as decrease in cell death at 2 to 8 uM; type: functional, cell-based; conditions: dose 2-8 µM
H9c2 [4] = test: Cardioprotective activity against H2O2 induced myocardial damage in rat H9c2 cells harbouring Ad.HDAC6 assessed as increase in cell viability at 8 uM by MTT assay; type: functional, cell-based
H9c2 [5] = test: Cardioprotective activity in H2O2 induced myocardial injury in rat H9c2 cells assessed as cell viability by MTT assay; type: functional, cell-based; conditions: dose <= 8.0 µM
PC-3 = test: Antiproliferative activity against human PC-3 cells assessed as inhibition of cell growth by MTT assay
H9c2 [6] = test: Cardioprotective activity in H2O2 induced myocardial injury in rat H9c2 cells assessed as effect on beclin1 level at upto 8 uM by q-PCR analysis; type: functional, cell-based
[7] = AUClast in male Sprague-Dawley rat at 7 mg/kg,iv measured upto 8 hrs by UPLC-MS/MS analysis; type: ADME, organism-based; conditions: in vivo
Mus musculus [8] = test: Cardioprotective activity against myocardial ischemia/reperfusion induced C57BL/6J mouse model assessed as reduction in IL-18 expression at 2.5 to 10 mg/kg; type: functional, organism-based; conditions: dose 2.5-10 mg/kg
MGC-803 [9] = test: Induction of apoptosis in human MGC-803 cells assessed as early apoptotic cells at 0.5 uM measured after 48 hrs by Annexin V-EGFP and PI staining based flow cytometry analysis (reference value: 0.66%); type: functional
HCT-116 = test: Antiproliferative activity against human HCT-116 cells assessed as inhibition of cell growth by MTT assay
MKN-45 = test: Antiproliferative activity against human MKN-45 cells assessed as inhibition of cell growth by MTT assay
MGC-803 [10] = test: Antitumor activity against human MGC-803 cells xenografted in […] mouse model assessed as suppression of tumor volume at 25 to 50 mg/kg, ip measured upto 21 days with continuous administration for 5 days followed by two days break; type: functional, organism-based; conditions: dose 25-50 mg/kg, time <= 21.0 day
[11] = Toxicity in C57BL/6 mouse assessed as cell necrosis at 25 to 50 mg/kg, ip by H and E staining based analysis; type: organism-based; conditions: in vivo, dose 25-50 mg/kg
H9c2 [12] = test: Cardioprotective activity against H2O2 induced myocardial damage in rat H9c2 cells harbouring Ad.HDAC6 assessed as reversal of IL-1 beta expression at 8 uM; type: functional, cell-based
H9c2 [13] = test: Protection against H2O2 induced myocardial cell injury in rat H9c2 cells at 10 uM pretreated for 24 hrs followed by H2O2 exposure and measured after 1.5 hrs (reference value: 17.91 to 57.32%); type: functional; conditions: time 25.5 hrs
H9c2 [14] = test: Cardioprotective activity in H2O2 induced myocardial injury in rat H9c2 cells assessed as decrease in cell contraction at 2 to 8 uM; type: functional, cell-based; conditions: dose 2-8 µM
H9c2 [15] = test: Cardioprotective activity in H2O2 induced myocardial injury in rat H9c2 cells assessed as downregulation of IL-1 beta expression; type: functional, cell-based; conditions: dose <= 8.0 µM
[16] = Observed clearance in male Sprague-Dawley rat at 7 mg/kg,po measured upto 8 hrs by UPLC-MS/MS analysis; type: ADME, organism-based; conditions: in vivo
[17] = Cmax in male Sprague-Dawley rat at 7 mg/kg,iv measured upto 8 hrs by UPLC-MS/MS analysis; type: ADME, organism-based; conditions: in vivo
[18] = Tmax in male Sprague-Dawley rat at 7 mg/kg,iv measured upto 8 hrs by UPLC-MS/MS analysis; type: ADME, organism-based; conditions: in vivo
Mus musculus [19] = test: Cardioprotective activity against myocardial ischemia/reperfusion induced C57BL/6J mouse model assessed as alleviation of severe edema at 10 mg/kg by H and E staining based analysis; type: functional, organism-based
[20] = Half life in male Sprague-Dawley rat at 7 mg/kg,po measured upto 8 hrs by UPLC-MS/MS analysis; type: ADME, organism-based; conditions: in vivo
H9c2 [21] = test: Cardioprotective activity in H2O2 induced myocardial injury in rat H9c2 cells assessed as LDH release by absorbance based analysis; type: functional, cell-based; conditions: dose <= 8.0 µM
MGC-803 [22] = test: Induction of apoptosis in human MGC-803 cells assessed as viable cells at 0.5 uM measured after 48 hrs by Annexin V-EGFP and PI staining based flow cytometry analysis (reference value: 92.3%); type: functional; conditions: read-out: Activity
[23] = Toxicity in C57BL/6 mouse assessed as effect on body weight at 25 to 50 mg/kg, ip measured after 21 days; type: organism-based; conditions: in vivo, 504 h, dose 25-50 mg/kg, time 21 day
AGS = test: Antiproliferative activity against human AGS cells assessed as inhibition of cell growth by MTT assay
MGC-803 [24] = test: Antitumor activity against human MGC-803 cells xenografted in […] mouse model assessed as decrease in HDAC6 expression administered as IP dose by Western blot analysis; type: functional, cell-based; conditions: dose 25-50 mg/kg
MGC-803 [25] = test: Induction of apoptosis in human MGC-803 cells assessed as late apoptotic cells at 0.5 uM measured after 48 hrs by Annexin V-EGFP and PI staining based flow cytometry analysis (reference value: 3.16%); type: functional
H9c2 [26] = test: Cardioprotective activity against H2O2 induced myocardial damage in rat H9c2 cells harbouring Ad.HDAC6 assessed as decrease in LDH leakage rate at 8 uM by absorbance based analysis; type: functional, cell-based
[27] = Observed apparent volume of distribution in male Sprague-Dawley rat at 7 mg/kg,po measured upto 8 hrs by UPLC-MS/MS analysis; type: ADME, organism-based; conditions: in vivo
MGC-803 [28] = test: Antimetastatic activity in human MGC-803 cells; type: functional, cell-based; conditions: dose <= 2.0 µM

O=C(NO)c1ccc(CNC(=O)c2cc(-c3ccc(F)cc3)cn3ccnc23)cc1
Vd [1]: 25.5 L/kg | Activity (MGC-803 [2]): Dose-Dependent Effect | Activity (H9c2 [3]): Active | Activity (H9c2 [4]): Active | Activity (H9c2 [5]): Active | IC50 (PC-3): > 10 µM | Activity (H9c2 [6]): inactive | AUC(0-t) at 8 h [7]: 740 ng·h/mL | Activity (Mus musculus [8]): Active | Activity (MGC-803 [9]): 0.52% | IC50 (HCT-116): > 10 µM | IC50 (MKN-45): 7.43 µM | Activity (MGC-803 [10]): Active | Activity [11]: Non-Toxic | Activity (H9c2 [12]): Active | Activity (H9c2 [13]): 66.13% | Activity (H9c2 [14]): Active | Activity (H9c2 [15]): Dose-Dependent Effect | CL/F [16]: 1590 mL/min/kg | Cmax [17]: 807 ng/mL | Tmax [18]: 5 min | Activity (Mus musculus [19]): Active | half-life [20]: 3.58 h | Activity (H9c2 [21]): Active | viability at 0.5 µM (MGC-803 [22]): 70.5% | Activity [23]: Non-Toxic | IC50 (AGS): > 10 µM | Activity (MGC-803 [24]): Dose-Dependent Effect | Activity (MGC-803 [25]): 15% | Activity (H9c2 [26]): Active | Vz [27]: 492.21671 L/kg | Activity (MGC-803 [28]): Dose-Dependent Effect
